Data taken from patent US6930203B2, “Gelling agents or thickeners” (Applied NanoSystems B.V., priority 2001, dated 2005).

Legend:
Format in all cases: physicochemical
[1] = Solvent scope of N,N′-dialkylaldaramides (1%) or N,N′-dialkylpentaramides (1%): gelation/solubility behaviour in solvents; parameters: key: g = gelation; s = soluble; p = precipitates; c = crystallizes; ns = not soluble; v = viscous; g* = unstable gel, precipitates; cg = crystalline gel; conditions: 1% gelling agent
Source text: It will be understood that the use of the present gelling agents or thickeners to prepare a gel or to thicken a composition is also encompassed by the invention. As is well known, gelling behavior of compounds or compositions is highly unpredictable. […] Preferably, the gelling phenomenon is thermo reversible.
(§1) Preferred examples include aromatic and nonaromatic hydrocarbons, alcohols, ethers, esters, aldehydes, alkanoic acids, epoxides, amines, halogenated hydrocarbons, silicon oils, vegetable oils, phosphoric esters, sulfoxides, water and mixtures thereof. In order to obtain a gel, the gelling agent or thickener is preferably mixed with the composition to be transformed to a gel in an amount of between 0.01 and 50 wt. %, based on the weight of the composition. In a preferred embodiment, the mixture of the gelling agent or thickener and the composition is heated to allow for an even better gel formation or thickening. Typically, the heating will involve raising the temperature of the mixture to about 30-175° C. until a clear solution is obtained. In an alternative embodiment, the gelling agent is first dissolved in a polar or apolar solvent and then added to or sprayed into a composition or solvent to be converted into a gel.
Solvent scope of N,N′-dialkylaldaramides (1%) or N,N′-dialkylpentaramides (1%) 1-24 refers to the compounds prepared in Examples 1-23)

[2] = Cold gelation: addition of a solution of the gelling agent (10% in NMP, 0.05 ml) to an organic solution (0.5 ml); parameters: key: g = gelation; s = soluble; p = precipitates; c = crystallizes; ns = not soluble; v = viscous; g* = unstable gel, precipitates; cg = crystalline gel; conditions: for Cold gelation in 1,2-dichloroethane: 0.05 ml added to 0.5 ml 1,2-dichloroethane; for Cold gelation in Toluene: 0.05 ml added to 0.5 ml Toluene; for Cold gelation in cyclohexane: 0.05 ml added to 0.5 ml cyclohexane; for Cold gelation in methyl laurate: 0.05 ml added to 0.5 ml methyl laurate; for Cold gelation in n-butyl acetate: 0.05 ml added to 0.5 ml n-butyl acetate
Source text: as §1
Addition of a solution of the gelling agent (10% in NMP, 0.05 ml) to an organic solution (0.5 ml, “cold gelation”)

[3] = Gelation of N,N′-dialkyladaramides (1%) in mixtures of solvents; parameters: key: g = gelation; s = soluble; p = precipitates; c = crystallizes; ns = not soluble; v = viscous; g* = unstable gel, precipitates; cg = crystalline gel; conditions: 1% gelling agent
Source text: as §1
Gelation of N,N′-dialkyladaramides (1%) in Mixtures of Solvents

[4] = Maximum gelator concentration
Source text: Maximum gelator concentration of 5 (C6-Glu-C6) and 15 (C12-Glu-C12)

## di-8-pentadecyl D-glucaramide [Example 18]
[1]
  Gelation/solubility behaviour in 1,2-dichloroethane: s
  Gelation/solubility behaviour in 2-octanol: s
  Gelation/solubility behaviour in 2-propanol: s
  Gelation/solubility behaviour in Cyclohexane: s
  Gelation/solubility behaviour in Dimethylsulfoxide: s
  Gelation/solubility behaviour in Ethanol: s
  Gelation/solubility behaviour in Hexadecane: s
  Gelation/solubility behaviour in Toluene: s
  Gelation/solubility behaviour in Water: p
  Gelation/solubility behaviour in n-butylacetate: s
  Gelation/solubility behaviour in p-xylene: s
[1]; 2-methoxyethanol
  Gelation/solubility behaviour in 2-methoxyethanol: s
[1]; methyl benzoic acid
  Gelation/solubility behaviour in methyl benzoic acid: s
[1]; methyl laurate
  Gelation/solubility behaviour in methyl laurate: s
[1]; silicon oil
  Gelation/solubility behaviour in silicon oil: s
[2]
  Cold gelation in 1,2-dichloroethane: s
  Cold gelation in Toluene: s
  Cold gelation in cyclohexane: s
  Cold gelation in methyl laurate: s
  Cold gelation in n-butyl acetate: s

## CCCCCCCCCCCCNC(=O)[C@@H](O)[C@@H](O)[C@H](O)[C@@H](O)C(=O)NCCCCCCCCCCCC [Example 12, didodecyl D-glucaramide]
[1]
  Gelation/solubility behaviour in 1,2-dichloroethane: p
  Gelation/solubility behaviour in 2-octanol: ns
  Gelation/solubility behaviour in 2-propanol: ns
  Gelation/solubility behaviour in Cyclohexane: ns
  Gelation/solubility behaviour in Dimethylsulfoxide: s
  Gelation/solubility behaviour in Ethanol: p
  Gelation/solubility behaviour in Hexadecane: ns
  Gelation/solubility behaviour in Toluene: ns
  Gelation/solubility behaviour in Water: ns
  Gelation/solubility behaviour in n-butylacetate: ns
  Gelation/solubility behaviour in p-xylene: ns
[3]
  Gelation in cyclohexane: ns
  Gelation in Dioxane: c
  Gelation in H2O: ns
  Gelation in dioxane/H2O 1:1: ns
  Gelation in dioxane/H2O 1:2: ns
  Gelation in dioxane/H2O 2:1: c
  Gelation in dioxane/H2O 3:1: c
[2]
  Cold gelation in 1,2-dichloroethane: p
  Cold gelation in Toluene: p
  Cold gelation in cyclohexane: p
  Cold gelation in methyl laurate: p
  Cold gelation in n-butyl acetate: p

## CC(C)=CCCC(C)CCNC(=O)[C@@H](O)[C@@H](O)[C@H](O)[C@@H](O)C(=O)NCCC(C)CCC=C(C)C (stereo partly drawn) [Example 11, dicitronellyl D-glucaramide]
[1]
  Gelation/solubility behaviour in 1,2-dichloroethane: s
  Gelation/solubility behaviour in 2-octanol: s
  Gelation/solubility behaviour in 2-propanol: s
  Gelation/solubility behaviour in Cyclohexane: g*
  Gelation/solubility behaviour in Dimethylsulfoxide: s
  Gelation/solubility behaviour in Ethanol: s
  Gelation/solubility behaviour in Hexadecane: p
  Gelation/solubility behaviour in Toluene: p
  Gelation/solubility behaviour in Water: c
  Gelation/solubility behaviour in n-butylacetate: p
  Gelation/solubility behaviour in p-xylene: p
[3]
  Gelation in cyclohexane: g*
  Gelation in Dioxane: s
  Gelation in H2O: c
  Gelation in dioxane/H2O 1:1: p
  Gelation in dioxane/H2O 1:2: p
  Gelation in dioxane/H2O 2:1: s
  Gelation in dioxane/H2O 3:1: s
[3]; cyclohexane/dioxane 1:1
  Gelation in cyclohexane/dioxane 1:1: s

## O=C(NC1CCCCC1)[C@@H](O)[C@@H](O)[C@H](O)[C@@H](O)C(=O)NC1CCCCC1 [Example 5, dicyclohexyl D-glucaramide]
[1]
  Gelation/solubility behaviour in 1,2-dichloroethane: cg
  Gelation/solubility behaviour in 2-octanol: cg
  Gelation/solubility behaviour in 2-propanol: cg
  Gelation/solubility behaviour in Dimethylsulfoxide: cg
  Gelation/solubility behaviour in Ethanol: cg
  Gelation/solubility behaviour in Hexadecane: ns
  Gelation/solubility behaviour in Water: ns
[2]
  Cold gelation in 1,2-dichloroethane: c
  Cold gelation in Toluene: c
  Cold gelation in cyclohexane: p
  Cold gelation in methyl laurate: c
  Cold gelation in n-butyl acetate: c
[4]; 1,2-dichloroethane
  Maximum gelator concentration in 1,2-dichloroethane: <5%
[4]; Toluene
  Maximum gelator concentration in Toluene: <2.5%
[4]; cyclohexane
  Maximum gelator concentration in cyclohexane: <5%
[4]; methyl laurate
  Maximum gelator concentration in methyl laurate: <2.5%
[4]; n-butylacetate
  Maximum gelator concentration in n-butylacetate: <2.5%
[4]; silicon oil (Dow Corning 702)
  Maximum gelator concentration in silicon oil (Dow Corning 702): <2.5%
